# System: patients with gout and a history of major cardiovascular diseases
# Assay: eGFR over time by average serum uric acid concentration, analysis of clinical trial data
# Assay type: in vivo, human
# Conditions: allopurinol group
# Description: In order to evaluate non-inferiority of febuxostat to allopurinol related to cardiovascular risk, a clinical trial was designed and proceeded.
# A multicenter, randomized, double-blind non-inferiority trial was performed. The details of the clinical trial design have been published previously. An independent data and safety monitoring committee with access to unblinded data monitored the clinical trial. The statistical analysis for the data and the safety monitoring committee was performed by an independent statistical group (WebbWrites).
# The patients were regarded as having a history of major cardiovascular diseases, if they had myocardial infarction, hospitalization for unstable angina, stroke, hospitalization for transient ischemic attack, peripheral vascular disease, or diabetes mellitus symptoms. All participants provided a prior informed consent form.
# The patients were randomly assigned so that they received febuxostat or allopurinol administered once a day in a double-blind manner. The randomization was stratified according to the estimated creatinine clearance at baseline (patient group having an estimated creatinine clearance ≥60 ml per minute vs patient group having an estimated creatinine clearance ≥30 and <60 ml per minute).
# The dose of allopurinol was modified according to a kidney function. The patients with the estimated creatinine clearance 60 ml or more per minute i) initially received allopurinol at a dose of 300 mg once a day, and the dose was increased in 100 mg increments monthly until the patient had the serum uric acid concentration of less than 6.0 mg per deciliter or the dosage of allopurinol was 600 mg once a day. The patient having the estimated creatinine clearance of 30 ml or more and less than 60 ml per minute initially received 200 mg of allopurinol, and then the dose was increased in 100 mg increments until the patient either had the serum uric acid concentration of less than 6.0 mg per deciliter or was receiving the allopurinol dose of 400 mg once daily.
# The dose of febuxostat was not modified according to the kidney function. The patients who were randomly assigned to receive febuxostat initially received 40 mg once a daily, and continued to receive the same dosage if the serum uric acid concentration was less than 6.0 mg per deciliter after 2 weeks of the treatment. If the serum uric acid concentration was higher than 6.0 mg per deciliter at 2nd week visit, the dose of febuxostat was increased to 80 mg once daily for the remainder of the trial.
# During the period, the administration of a double-blind and double-dummy trial medications was guided by an interactive voice-response system which was a procedure to prevent unblinding for the patients whose dose was not adjusted. After completing dose adjustment, the urate level was concealed from the investigators, and the treatment was managed throughout the trial using the interactive voice-response system.
# Outpatient visits were conducted according to the following schedule: during screening and randomization, and at 2, 4, 6, 8, 10, 12, and 24 weeks after the randomization, and every 6 months during the subsequent years of the trial. The patients with reduced kidney function or, the patients aged 65 years or older at randomization were visited at 9 and 15 months for monitoring the serum chemical profile. If the patient agreed to be monitored, but would not return for study visit, telephone contact was made, but such method was not preferred or recommended.
# In order to confirm the effect of allopurinol and febuxostat on the kidney disease, the data obtained in the clinical trial described above was analyzed.
smiles,measurement,setting,value
Oc1ncnc2[nH]ncc12 [allopurinol],eGFR Mean (95% CI),"Baseline blood glucose level ≥126, Average UA <6, Baseline",63.77 (62.08-65.46) ml/min/1.73 m^2
same,eGFR Mean (95% CI),"Baseline blood glucose level ≥126, Average UA <6, Month 3",63.92 (62.16-65.69) ml/min/1.73 m^2
same,eGFR Mean (95% CI),"Baseline blood glucose level ≥126, Average UA <6, Month 6",63.77 (61.98-65.56) ml/min/1.73 m^2
same,eGFR Mean (95% CI),"Baseline blood glucose level ≥126, Average UA <6, Month 12",64.33 (62.51-66.15) ml/min/1.73 m^2
same,eGFR Mean (95% CI),"Baseline blood glucose level ≥126, Average UA <6, Month 18",64.04 (61.97-66.10) ml/min/1.73 m^2
same,eGFR Mean (95% CI),"Baseline blood glucose level ≥126, Average UA <6, Month 24",64.60 (62.41-66.78) ml/min/1.73 m^2
same,eGFR Mean (95% CI),"Baseline blood glucose level ≥126, Average UA <6, Month 30",63.32 (60.93-65.71) ml/min/1.73 m^2
same,eGFR Mean (95% CI),"Baseline blood glucose level ≥126, Average UA <6, Month 36",63.57 (60.97-66.18) ml/min/1.73 m^2
same,eGFR Mean (95% CI),"Baseline blood glucose level ≥126, Average UA <6, Month 42",62.14 (59.40-64.89) ml/min/1.73 m^2
same,eGFR Mean (95% CI),"Baseline blood glucose level ≥126, Average UA <6, Month 48",64.42 (61.23-67.61) ml/min/1.73 m^2
same,eGFR Mean (95% CI),"Baseline blood glucose level ≥126, Average UA <6, Month 54",64.35 (61.09-67.61) ml/min/1.73 m^2
same,eGFR Mean (95% CI),"Baseline blood glucose level ≥126, Average UA <6, Month 60",64.49 (60.29-68.70) ml/min/1.73 m^2
same,eGFR Mean (95% CI),"Baseline blood glucose level ≥126, Average UA <6, Week 2",63.46 (61.70-65.22) ml/min/1.73 m^2
same,eGFR Mean (95% CI),"Baseline blood glucose level ≥126, Average UA ≥6, Baseline",62.56 (60.14-64.98) ml/min/1.73 m^2
same,eGFR Mean (95% CI),"Baseline blood glucose level ≥126, Average UA ≥6, Month 3",62.44 (59.88-65.00) ml/min/1.73 m^2
same,eGFR Mean (95% CI),"Baseline blood glucose level ≥126, Average UA ≥6, Month 6",61.37 (58.85-63.90) ml/min/1.73 m^2
same,eGFR Mean (95% CI),"Baseline blood glucose level ≥126, Average UA ≥6, Month 12",62.57 (60.02-65.12) ml/min/1.73 m^2
same,eGFR Mean (95% CI),"Baseline blood glucose level ≥126, Average UA ≥6, Month 18",60.70 (57.80-63.60) ml/min/1.73 m^2
same,eGFR Mean (95% CI),"Baseline blood glucose level ≥126, Average UA ≥6, Month 24",60.72 (57.46-63.99) ml/min/1.73 m^2
same,eGFR Mean (95% CI),"Baseline blood glucose level ≥126, Average UA ≥6, Month 30",60.06 (56.44-63.69) ml/min/1.73 m^2
same,eGFR Mean (95% CI),"Baseline blood glucose level ≥126, Average UA ≥6, Month 36",59.78 (55.61-63.95) ml/min/1.73 m^2
same,eGFR Mean (95% CI),"Baseline blood glucose level ≥126, Average UA ≥6, Month 42",57.66 (52.84-62.48) ml/min/1.73 m^2
same,eGFR Mean (95% CI),"Baseline blood glucose level ≥126, Average UA ≥6, Month 48",56.80 (51.66-61.93) ml/min/1.73 m^2
same,eGFR Mean (95% CI),"Baseline blood glucose level ≥126, Average UA ≥6, Month 54",57.15 (51.53-62.78) ml/min/1.73 m^2
same,eGFR Mean (95% CI),"Baseline blood glucose level ≥126, Average UA ≥6, Month 60",54.70 (48.12-61.28) ml/min/1.73 m^2
same,eGFR Mean (95% CI),"Baseline blood glucose level ≥126, Average UA ≥6, Week 2",62.27 (59.80-64.73) ml/min/1.73 m^2
same,eGFR Mean (95% CI),"DBP <80, Average UA <6, Baseline",62.91 (61.68-64.15) ml/min/1.73 m^2
same,eGFR Mean (95% CI),"DBP <80, Average UA <6, Month 3",63.26 (61.95-64.58) ml/min/1.73 m^2
same,eGFR Mean (95% CI),"DBP <80, Average UA <6, Month 6",63.55 (62.23-64.87) ml/min/1.73 m^2
same,eGFR Mean (95% CI),"DBP <80, Average UA <6, Month 12",64.71 (63.34-66.07) ml/min/1.73 m^2
same,eGFR Mean (95% CI),"DBP <80, Average UA <6, Month 18",64.41 (62.91-65.90) ml/min/1.73 m^2
same,eGFR Mean (95% CI),"DBP <80, Average UA <6, Month 24",64.00 (62.43-65.57) ml/min/1.73 m^2
same,eGFR Mean (95% CI),"DBP <80, Average UA <6, Month 30",64.49 (62.77-66.21) ml/min/1.73 m^2
same,eGFR Mean (95% CI),"DBP <80, Average UA <6, Month 36",63.61 (61.80-65.43) ml/min/1.73 m^2
same,eGFR Mean (95% CI),"DBP <80, Average UA <6, Month 42",63.91 (61.95-65.87) ml/min/1.73 m^2
same,eGFR Mean (95% CI),"DBP <80, Average UA <6, Month 48",64.88 (62.69-67.07) ml/min/1.73 m^2
same,eGFR Mean (95% CI),"DBP <80, Average UA <6, Month 54",64.19 (61.76-66.62) ml/min/1.73 m^2
same,eGFR Mean (95% CI),"DBP <80, Average UA <6, Month 60",64.73 (61.86-67.61) ml/min/1.73 m^2
same,eGFR Mean (95% CI),"DBP <80, Average UA <6, Week 2",62.85 (61.57-64.14) ml/min/1.73 m^2
same,eGFR Mean (95% CI),"DBP <80, Average UA ≥6, Baseline",60.15 (58.18-62.12) ml/min/1.73 m^2
same,eGFR Mean (95% CI),"DBP <80, Average UA ≥6, Month 3",61.22 (59.20-63.24) ml/min/1.73 m^2
same,eGFR Mean (95% CI),"DBP <80, Average UA ≥6, Month 6",61.19 (59.14-63.24) ml/min/1.73 m^2
same,eGFR Mean (95% CI),"DBP <80, Average UA ≥6, Month 12",60.39 (58.37-62.42) ml/min/1.73 m^2
same,eGFR Mean (95% CI),"DBP <80, Average UA ≥6, Month 18",60.06 (57.73-62.40) ml/min/1.73 m^2
same,eGFR Mean (95% CI),"DBP <80, Average UA ≥6, Month 24",59.51 (56.88-62.15) ml/min/1.73 m^2
same,eGFR Mean (95% CI),"DBP <80, Average UA ≥6, Month 30",59.37 (56.35-62.39) ml/min/1.73 m^2
same,eGFR Mean (95% CI),"DBP <80, Average UA ≥6, Month 36",58.89 (55.43-62.34) ml/min/1.73 m^2
same,eGFR Mean (95% CI),"DBP <80, Average UA ≥6, Month 42",57.48 (53.76-61.19) ml/min/1.73 m^2
same,eGFR Mean (95% CI),"DBP <80, Average UA ≥6, Month 48",59.25 (55.00-63.51) ml/min/1.73 m^2
same,eGFR Mean (95% CI),"DBP <80, Average UA ≥6, Month 54",58.18 (53.60-62.76) ml/min/1.73 m^2
same,eGFR Mean (95% CI),"DBP <80, Average UA ≥6, Week 2",61.16 (59.19-63.13) ml/min/1.73 m^2
same,eGFR Mean (95% CI),"No congestive cardiac failure history, Average UA <6, Baseline",66.85 (65.82-67.88) ml/min/1.73 m^2

# From patent US20250152592A1, “PHARMACEUTICAL COMPOSITION COMPRISING ALLOPURINOL, FEBUXOSTAT OR PHARMACEUTICALLY ACCEPTABLE SALT THEREOF FOR PREVENTION OR TREATMENT OF CHRONIC KIDNEY DISEASE IN SUBJECT HAVING HIGH SERUM URIC ACID CONCENTRATION” (Indream Healthcare Inc., priority 2022, published 2025)
